From US8623843B2, “Antimicrobial compound and preparation thereof” (Shenzhen University, priority 2009, dated 2014)
In brackets after ≈: the same amount, converted by molar mass.

How the values were obtained:
Format in all cases: cell-based
S. aureas = assay: persistent antimicrobial activity of treated glass surface, colony (plate) counting method, S. aureas; parameters: concentration or dose not given beside the values
Description: (§1) The resulting products from the above examples were used for treating a glass surface respectively, a superhydrophilic surface at a contact angle of less than 10° […]. was all obtained. In addition, they were tested for antimicrobial activity and persistent antimicrobial activity using the colony counting method, and the results are shown in table 1.

E. coli = assay: persistent antimicrobial activity of treated glass surface, colony (plate) counting method, E. coli
Description: as §1

E. coli (8099) = assay: minimum inhibitory / bactericidal concentration for E. coli
S. aureas (ATCC6538) = assay: minimum inhibitory / bactericidal concentration for S. aureas

Molecule	persistent antimicrobial activity (plate counting method) (S. aureas; wash times 0) [%]	persistent antimicrobial activity (plate counting method) (S. aureas; wash times 1) [%]	persistent antimicrobial activity (plate counting method) (S. aureas; wash times 5) [%]	persistent antimicrobial activity (plate counting method) (S. aureas; wash times 10) [%]	persistent antimicrobial activity (plate counting method) (S. aureas; wash times 30) [%]	persistent antimicrobial activity (plate counting method) (E. coli; wash times 0) [%]	persistent antimicrobial activity (plate counting method) (E. coli; wash times 1) [%]	persistent antimicrobial activity (plate counting method) (E. coli; wash times 5) [%]	persistent antimicrobial activity (plate counting method) (E. coli; wash times 10) [%]	persistent antimicrobial activity (plate counting method) (E. coli; wash times 30) [%]	minimum bactericidal concentration (MBC) (E. coli (8099)) [mg/mL]	minimum inhibitory concentration (MIC) (E. coli (8099)) [mg/mL]	minimum bactericidal concentration (MBC) (S. aureas (ATCC6538)) [mg/mL]	minimum inhibitory concentration (MIC) (S. aureas (ATCC6538)) [mg/mL]
CCO[Si](CCC[N+](C)(C)CCCS(=O)(=O)[O-])(OCC)OCC [Embodiment 1, (CH3CH2O)3Si(CH2)3^+N(CH3)2(CH2)3SO3^−]	99.9	99.9	99.6	99.5	99.0	99.9	99.8	99.5	99.0	99.2	20 (≈ 53.8 mM)	15 (≈ 40.4 mM)	20 (≈ 53.8 mM)	15 (≈ 40.4 mM)
CCO[Si](C)(CCC[N+](C)(C)CC(=O)[O-])OCC [Embodiment 3, (CH3CH2O)2SiCH3(CH2)3^+N(CH3)2CH2CO2^−]	99.9	99.9	99.5	98.2	97.6	99.9	99.8	99.2	97.9	97.2	25 (≈ 90.1 mM)	20 (≈ 72.1 mM)	25 (≈ 90.1 mM)	20 (≈ 72.1 mM)
CCO[Si](C)(CCC[N+](C)(C)CCC(=O)[O-])OCC [Embodiment 4, (CH3CH2O)2SiCH3(CH2)3^+N(CH3)2(CH2)2CO2^−]	99.9	99.9	99.6	98.9	98.3	99.9	99.8	99.0	98.6	98.1	20 (≈ 68.6 mM)	10 (≈ 34.3 mM)	20 (≈ 68.6 mM)	10 (≈ 34.3 mM)
CC[N+](CC)(CCC[Si](OC)(OC)OC)CCCS(=O)(=O)[O-] [Embodiment 5, (CH3O)3Si(CH2)3^+N(CH2CH3)2(CH2)3SO3^−]	99.9	99.9	99.5	98.8	98.2	99.9	99.7	99.0	98.7	98.0	20 (≈ 55.9 mM)	15 (≈ 42 mM)	20 (≈ 55.9 mM)	15 (≈ 42 mM)
CC[N+](CC)(CCC[Si](OC)(OC)OC)CCS(=O)(=O)[O-] [Embodiment 6, (CH3O)3Si(CH2)3^+N(CH2CH3)2(CH2)2SO3^−]	99.9	99.9	99.5	98.2	97.6	99.9	99.8	99.3	97.9	97.2	25 (≈ 72.8 mM)	20 (≈ 58.2 mM)	25 (≈ 72.8 mM)	20 (≈ 58.2 mM)
CO[Si](CCCNCCNCCCS(=O)(=O)O)(OC)OC [Embodiment 7, (CH3O)3Si(CH2)3NH(CH2)2^+NH2(CH2)3SO3^−]	99.9	99.8	99.6	99.1	98.2	99.9	99.5	99.1	98.6	98.0	30 (≈ 87.1 mM)	25 (≈ 72.6 mM)	30 (≈ 87.1 mM)	25 (≈ 72.6 mM)
CCC[N+](CCC)(CCC[Si](OC)(OC)OC)CCCS(=O)(=O)[O-] [Embodiment 8, (CH3O)3Si(CH2)3^+N(CH2CH2CH3)2(CH2)3SO3^−]	99.9	99.9	99.5	98.8	98.5	99.9	99.7	99.3	98.7	98.2	20 (≈ 51.9 mM)	15 (≈ 38.9 mM)	20 (≈ 51.9 mM)	15 (≈ 38.9 mM)
(CH3CH2O)2SiCH3(CH2CH3)3^+N(CH3)2(CH2)3SO3^− [Embodiment 2]	99.9	99.9	99.9	99.6	99.0	99.9	99.9	99.3	98.9	98.5	30	25	30	25
